Reference: US9351965B2, “Indazole derivatives useful as ERK inhibitors” (Merck Sharp & Dohme Corp., priority 2010, dated 2016)
pIC50: −log10 of the molar value.

Target: fully phosphorylated, active Mouse ERK2 protein (Mus musculus (Mouse), UniProt P63085)
Experiment: Active ERK2 (aERK) IMAP assay
Assay type: biochemical
Settings: IMAP fluorescence polarization; 30 μM ATP; 30 minute pre-incubation
Protocol: 14 μl of kinase buffer (10 mM Tris.HCl pH 7.2, 10 mM MgCl2, 0.01% Tween-20, 1 mM DTT) containing 0.4 ng unphosphorylated Mouse ERK2 protein was added to each well of a black 384-well assay plate. […] DMSO concentration during initial incubation is 6.7%. […] DMSO concentration during ERK activation was 4%. After one hour, reactions were terminated by addition of 60 μl IMAP detections beads in binding buffer (Molecular Devices). Binding was allowed to equilibrate for 30 minutes before reading the plate on an LJL Analyst Fluorescence Polarization plate reader.
Active ERK2 (aERK) Assay:
Activated ERK2 activity was also determined in the IMAP assay format using the procedure outlined above. […] Reactions proceeded for 30 minutes before termination by addition of 60 μl IMAP detection beads in binding buffer. Plates were read as above after 30 minute binding equilibration.

Chain of fully phosphorylated, active Mouse ERK2 protein (P63085 whole entry): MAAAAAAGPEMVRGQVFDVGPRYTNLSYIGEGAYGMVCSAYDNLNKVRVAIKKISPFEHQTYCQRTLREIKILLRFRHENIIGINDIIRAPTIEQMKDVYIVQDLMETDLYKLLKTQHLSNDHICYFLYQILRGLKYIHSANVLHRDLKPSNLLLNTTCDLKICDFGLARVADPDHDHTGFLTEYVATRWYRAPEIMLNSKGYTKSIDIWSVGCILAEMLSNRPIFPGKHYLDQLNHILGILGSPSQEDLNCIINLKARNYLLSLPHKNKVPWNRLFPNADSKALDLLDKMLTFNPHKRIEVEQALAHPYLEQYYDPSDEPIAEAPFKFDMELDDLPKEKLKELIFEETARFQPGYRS

For `Cc1cc(-c2n[nH]c3ccc(C(=O)N[C@H]4CCC[C@](O)(Cn5ncc6ccc(F)cc65)C4)cc23)ccn1` (relative stereo) [compound 107, N-[cis-3-[(6-fluoro-1H-indazol-1-yl)methyl]-3-hydroxycyclohexyl]-3-(2-methyl-4-pyridinyl)-1H-indazole-5-carboxamide], the pIC50 was 6.44.
Molecule `Cc1cc(-c2n[nH]c3ccc(C(=O)N[C@@H]4CCC[C@](O)(Cn5ncc6ccccc65)C4)cc23)ccn1` [compound 65, N-[3(R)-hydroxy-3-(1H-indazol-1-ylmethyl)-1(R)-cyclohexyl]-3-(2-methyl-4-pyridinyl)-1H-indazole-5-carboxamide] has a pIC50 of 6.01.
With `Cc1cc(-c2n[nH]c3ccc(C(=O)N[C@H]4CCC[C@@](O)(Cn5ncc6cc(F)ccc65)C4)cc23)ccn1` (relative stereo) [compound 98, N-[trans-3-[(5-fluoro-1H-indazol-1-yl)methyl]-3-hydroxycyclohexyl]-3-(2-methyl-4-pyridinyl)-1H-indazole-5-carboxamide] the pIC50 was 6.00.
With `Cc1cc(-c2n[nH]c3ccc(C(=O)NC4CCCC(CO)(Cc5ccc(F)cc5F)C4)cc23)ccn1` (centres unmarked) [compound 134, N-[3-[(2,4-difluorophenyl)methyl]-3-(hydroxymethyl)cyclohexyl]-3-(2-methyl-4-pyridinyl)-1H-indazole-5-carboxamide] the pIC50 was 6.36.
For `Cc1cc(-c2n[nH]c3ccc(C(=O)N[C@@H]4CCC[C@@](O)(Cn5c(C(F)(F)F)nc6ccccc65)C4)cc23)ccn1` [compound 68], the pIC50 was 6.09.
In the case of `Cn1cc2cc(-c3n[nH]c4ccc(C(=O)N[C@@H]5CCC[C@@](O)(Cn6cccn6)C5)cc34)ccc2n1` (relative stereo) [compound 60, N-[cis-3-hydroxy-3-(1H-pyrazol-1-ylmethyl)cyclohexyl]-3-(2-methyl-2H-indazol-5-yl)-1H-indazole-5-carboxamide], the pIC50 was 6.82.
Molecule `COc1cccc(F)c1C[C@@]1(O)CCC[C@@H](NC(=O)c2ccc3[nH]nc(-c4ccc5nccn5c4)c3c2)C1` [compound 23, N-[3(S)-[(2-fluoro-6-methoxyphenyl)methyl]-3-hydroxy-1(R)-cyclohexyl]-3-imidazo[1,2-a]pyridin-6-yl-1H-indazole-5-carboxamide] has a pIC50 of 8.66.
`Cn1cc2cc(-c3n[nH]c4ccc(C(=O)N[C@@H]5CCC[C@@](O)(Cn6ccnc6)C5)cc34)ccc2n1` (relative stereo) [compound 57, N-[cis-3-hydroxy-3-(1H-imidazol-1-ylmethyl)cyclohexyl]-3-(2-methyl-2H-indazol-5-yl)-1H-indazole-5-carboxamide] was tested, and the pIC50 was 7.42.
Molecule `Cc1cc(-c2n[nH]c3ccc(C(=O)NC4CCCC(Cn5ncc6ccccc65)C4)cc23)ccn1` (centres unmarked) [compound 123, N-[3-(1H-indazol-1-ylmethyl)cyclohexyl]-3-(2-methyl-4-pyridinyl)-1H-indazole-5-carboxamide] has a pIC50 of 7.97.
Molecule `Cc1cc(-c2n[nH]c3ccc(C(=O)NC4CCCC(CO)(Cc5ccccc5)C4)cc23)ccn1` (centres unmarked) [compound 132, N-[3-(hydroxymethyl)-3-(phenylmethyl)cyclohexyl]-3-(2-methyl-4-pyridinyl)-1H-indazole-5-carboxamide] has a pIC50 of 6.65.
`Cc1cc(-c2n[nH]c3ccc(C(=O)NC4CCC(CO)(Cc5ccccc5F)C4)cc23)ccn1` (centres unmarked) [compound 138, N-[3-[(2-fluorophenyl)methyl]-3-(hydroxymethyl)cyclopentyl]-3-(2-methyl-4-pyridinyl)-1H-indazole-5-carboxamide] gave a pIC50 of 7.72.
In the case of `O=C(N[C@@H]1CCC[C@](O)(Cc2c(F)cccc2F)C1)c1ccc2[nH]nc(-c3ccc4ncsc4c3)c2c1` [compound 20, 3-(6-benzothiazolyl)-N-[3(S)-[(2,6-difluorophenyl)methyl]-3-hydroxy-1(R)-cyclohexyl]-1H-indazole-5-carboxamide], the pIC50 was 7.47.
`Cc1cc(-c2n[nH]c3ccc(C(=O)NC4CCCC(Oc5ccccc5Cl)C4)cc23)ccn1` (single isomer, unassigned) [compound 35, N-[3-(2-chlorophenoxy)cyclohexyl]-3-(2-methyl-4-pyridinyl)-1H-indazole-5-carboxamide] showed a pIC50 of 6.72.
With `Cc1cc(-c2n[nH]c3ccc(C(=O)N[C@@H]4CCC[C@@](O)(Cn5cnc6cccnc65)C4)cc23)ccn1` (relative stereo) [compound 82, N-[cis-3-hydroxy-3-(3H-imidazo[4,5-b]pyridin-3-ylmethyl)cyclohexyl]-3-(2-methyl-4-pyridinyl)-1H-indazole-5-carboxamide] the pIC50 was 7.01.
With `Cc1nc2ccc(-c3n[nH]c4ccc(C(=O)N[C@@H]5CCC[C@](O)(Cc6c(F)cccc6F)C5)cc34)cc2s1` [compound 14, N-[3(S)-[(2,6-difluorophenyl)methyl]-3-hydroxy-1(R)-cyclohexyl]-3-(2-methyl-6-benzothiazolyl)-1H-indazole-5-carboxamide] the pIC50 was 7.81.
In the case of `COC1(Cc2ccccc2F)CCCC(NC(=O)c2ccc3[nH]nc(-c4ccnc(C)c4)c3c2)C1` (centres unmarked) [compound 40, N-[3-[(2-fluorophenyl)methyl]-3-methoxycyclohexyl]-3-(2-methyl-4-pyridinyl)-1H-indazole-5-carboxamide], the pIC50 was 6.69.
Work on `Cc1cc(-c2n[nH]c3ccc(C(=O)NC4CCCC(Cn5c(=O)ccc6ccccc65)C4)cc23)ccn1` (centres unmarked) [compound 121, 3-(2-methyl-4-pyridinyl)-N-[3-[(2-oxo-1(2h)-quinolinyl)methyl]cyclohexyl]-1H-indazole-5-carboxamide] yielded a pIC50 of 7.43.
For `CC(C)Oc1ccc(-c2n[nH]c3ccc(C(=O)N[C@@H]4CCC[C@](O)(Cc5c(F)cccc5F)C4)cc23)cn1` [compound 18, N-[3(S)-[(2,6-difluorophenyl)methyl]-3-hydroxy-1(R)-cyclohexyl]-3-[6-(1-methylethoxy)-3-pyridinyl]-1H-indazole-5-carboxamide], the pIC50 was 6.85.
`Cc1cc(-c2n[nH]c3ccc(C(=O)NC4CCCC(O)(Cc5c(F)cccc5F)C4)cc23)ccn1` (single isomer, unassigned) [compound 7, N-[3-[(2,6-difluorophenyl)methyl]-3-hydroxycyclohexyl]-3-(2-methyl-4-pyridinyl)-1H-indazole-5-carboxamide] was tested, and the pIC50 was 7.82.
`Cc1cc(-c2n[nH]c3ccc(C(=O)N[C@@H]4CCC[C@](O)(Cn5ncc6cnccc65)C4)cc23)ccn1` (relative stereo) [compound 87, N-[trans-3-hydroxy-3-(1H-pyrazolo[4,3-c]pyridin-1-ylmethyl)cyclohexyl]-3-(2-methyl-4-pyridinyl)-1H-indazole-5-carboxamide] was tested, and the pIC50 was 6.39.
In the case of `Cc1cc(-c2n[nH]c3ccc(C(=O)NC4CCCC(O)(C(O)c5ccccc5)C4)cc23)ccn1` (centres unmarked) [compound 52, N-[3-hydroxy-3-(hydroxyphenylmethyl)cyclohex-yl]-3-(2-methyl-4-pyridinyl)-1H-indazole-5-carboxamide (diasterimer 4)], the pIC50 was 6.53.
`COc1cccc(F)c1C[C@@]1(O)CCC[C@@H](NC(=O)c2ccc3[nH]nc(-c4ccc(OC(C)C)cc4)c3c2)C1` [compound 26, N-[3(S)-[(2-fluoro-6-methoxyphenyl)methyl]-3-hydroxy-1(R)-cyclohexyl]-3-[4-(1-methylethoxy)phenyl]-1H-indazole-5-carboxamide] was tested, and the pIC50 was 7.10.
`Cc1cc(-c2n[nH]c3ccc(C(=O)NC4CCCC(Cn5cc6cccnc6n5)C4)cc23)ccn1` (centres unmarked) [compound 113, 3-(2-methyl-4-pyridinyl)-N-[3-(2H-pyrazolo[3,4-b]pyridin-2-ylmethyl)cyclohexyl]-1H-indazole-5-carboxamide] gave a pIC50 of 6.79.
